Blank lines part the entries; values can stand above or below the compound they belong to. Where a SMILES comes first, the peptide text is derived from it. Bridges are numbered along the chain shown (N, C = ends). [ ]: non-standard residue; d: D form. 2Nal = N[C@@H](Cc1ccc2ccccc2c1)C(=O)O; Bta = N[C@@H](Cc1csc2ccccc12)C(=O)O; Pen = CC(C)(S)[C@H](N)C(=O)O; Tle = CC(C)(C)[C@H](N)C(=O)O; Pip = O=C(O)[C@@H]1CCCCN1
What was measured:
HeLa cells = test: Cellular uptake efficiency by flow cytometry; assay type: cell-based; details: HeLa cells
Description: (§1) Cellular Uptake Efficiency: HeLa cells were seeded into 12-well cell-culture treated plates at a final density of 15×10^4 cells/well in DMEM supplemented with 10% FBS and 1% penicillin/streptomycin and incubated overnight at 37° ° C. and 5% CO2. After 24 h, the media was aspirated followed by washing the cells three times with warm DPBS. Peptides were diluted to a final concentration of 5 μM in DMEM containing 10% FBS with 1% penicillin/streptomycin, added to each well and then incubated for 2 h at 37° C. and 5% CO2. After 2 h, treatment media was aspirated and the cells were washed three times with ice-cold DPBS. Cells were removed from the plate via treatment with trypsin/EDTA and then harvested in ice-cold DPBS followed by centrifugation at ×300 RCF, 4° C. for 5 min. Cells were resuspended in DPBS and quantified using a BD Biosciences LSR II flow cytometer and gated using FlowJo. Values for uptake are provided as a percentage relative to positive control, CPP9 ([cyclo-fΦRrRrQ]-miniPEG-K[NF]).
as §1, with “Cellular Uptake. HeLa cells” for “Cellular Uptake Efficiency: HeLa cells”, “at 37° C. and” for “at 37° ° C. and”, “37° C. with 5% CO2.” for “37° C. and 5% CO2.”, “centrifugation at 300 g, 4° C.” for “centrifugation at ×300 RCF, 4° C.”, “control, CPP9 ([cyclo-fΦRrRrQ]-miniPEG-K[NF]), which has a 62% cytosolic entry efficiency. PGD97 entered HeLa cells at 60% efficiency relative to CPP9, corresponding to an absolute cytosolic entry efficiency of ˜36% (FIG. 9).” for “control, CPP9 ([cyclo-fΦRrRrQ]-miniPEG-K[NF]).”

[1] = biological target: T1, CAL PDZ domain (CALP5-His) (Homo sapiens, UniProt Q9HD26); test: FP/FA-based competition assay, Condition A (probe peptide 26); assay type: binding; details: Condition A (superscript a): 50 nM probe peptide 26, 100 nM CALP5-His, 2 mM TCEP
T1 construct: His
Excerpt: First, the C-terminal valine (position 0) was replaced with a variety of residues and evaluated for binding to CAL PDZ domain in silico.

HCT116 cell spheroids = test: Intracellular stability by MALDI imaging; assay type: in vitro ADME; details: after 4 or 24 h incubation with PGD97
Description: Intracellular Stability. PGD97 ([…]) was added to HCT116 cell spheroids in RPMI-1640 medium supplemented with 10% FBS and 1% penicillin/streptomycin and incubated for 4 or 24 h. After incubation, spheroids were washed 3× with DPBS, quickly frozen, embedded in a solid support, and cryo-sectioned. Prior to analysis, sinapinic acid was sublimed onto individual slides. The sample was imaged using a Bruker ultrafleXtreme MALDI-TOF-TOF and analyzed for the presence of proteolytic degradation fragments. Heatmaps, scaled relative to the most intense signal, were generated for the intact peptide (both 29 and 32) as well as ˜20 potential proteolytic fragments at each time point. […] A degradation fragment (#1) corresponding to proteolytic cleavage between Thr and Arg (FIG. 8B) was observed, but none of the other potential degradation products were observed. […] Most importantly, significant concentrations of intact peptide 29 was still present inside the cells after 24 h.

CFBE cells [2] = test: Cytotoxicity, MTT assay; assay type: cell-based; details: 72 h, up to 50 μM
Description: (§2) Cytotoxicity. CFBE, HCT116 (colorectal cancer), or H358 (lung cancer) cells were seeded into a 96-well microplate (5000 cells per well) in full growth media and incubated at 37° C. overnight. A serial dilution of PGD97 was prepared in DPBS and then added to each well. The treated cells were incubated at 37° C. with 5% CO2 for 72 h. Following compound treatment, 10 μL of MTT stock solution was added to each well. After an additional 4 h at 37° C., 100 μL of SDS-HCl solubilizing solution was added to each well and the plate was returned to the incubator overnight at 37° C. A Tecan Infinite M1000 Pro microplate reader was used the following morning to measure the absorbance of the formazan product at 565 nm.

[3] = tested on: HCT116 (colorectal cancer) cells; test: Cytotoxicity, MTT assay; assay type: cell-based; details: 72 h, up to 50 μM
Description: as §2

H358 (lung cancer) cells = test: Cytotoxicity, MTT assay; assay type: cell-based; details: 72 h, up to 50 μM
Description: as §2

[4] = tested on: patient-derived primary cells; test: Short-circuit current, Ussing chamber; assay type: cell-based, human; details: 100 nM with 10 μM VX661, 24 h
Description: (§3) Effect on Ion Channel Activity. CFBE or patient-derived primary cells were seeded onto filter inserts and grown to confluence at 37° C. in complete growth medium containing 10% FBS and 1% penicillin/streptomycin. Once confluent, cells were gently washed with DPBS and 10 µM VX661 and/or 100 nM PGD97 were added in complete growth medium supplemented with 10% FBS and 1% penicillin/streptomycin for 4 h or 24 h at 37° ° C. before measuring short circuit current using an Ussing chamber. PGD97 improved the ion channel activity by 33% and 37% relative to VX661 only controls after 4 and 24 h, respectively (FIGS. 12A and 12B).

CFBE cells [5] = test: Short-circuit current, Ussing chamber; assay type: cell-based; details: 100 nM with 10 μM VX661, relative to VX661 only control
Description: as §3

LC3-II = test: Autophagy in macrophages, western blotting for LC3-II; assay type: cell-based, human; details: 100 nM, 48 h, ΔF508 CFTR macrophages
Description: Effect on Autophagy in Macrophage. Human primary ΔF508 CFTR macrophages were incubated with 10 μM VX809 (n=1) or 100 nM PGD97 (n=2) for 48 h in complete growth medium supplemented with 10% FBS and 1% penicillin/streptomycin at 37° C. Induction of autophagy was determined via western blotting for autophagy-associated protein LC3-II.

ΔF508CFTR-FAP = test: ΔF508 CFTR membrane expression, FAP assay in HEK-293T cells; assay type: cell-based
Description: Effect on ΔF508 CFTR Membrane Expression. HEK-293T cells stably expressing ΔF508CFTR-FAP (Holleran et al. Mol. Med. 2012, 18, 685-696) were seeded into poly-L-lysine-coated white-wall, clear bottom 96-well plates (100,000 cells/well) in complete growth medium and incubated for 24 h at 27° ° C. or 37° C. and 5% CO2. After 24 h, media was aspirated from each well and washed twice with warm DPBS. Compound serial dilutions with or without 10 μM VX809 were added to each well in fresh penicillin/streptomycin-free media containing 10% FBS and incubated at 27° ° C. or 37° ° C. in 5% CO2 for 24 h. After 24 h, the media was aspirated and each well was washed 3× with warm DPBS. 500 nM MG-B-Tau and 500 nM Hoechst 33342 was added in DPBS and MG-B-Tau fluorescence was immediately measured on a TECAN Infinite M1000 plate reader (excitation=640 nm, emission=680 nm, 10 nm bandwidth, 16 distinct points per well). After measurement, the plate was returned to the incubator at 37° C. for 1 h before quantifying Hoechst 33342 fluorescence on a TECAN Infinite M1000 plate reader (excitation=362 nm, emission=492 nm, 5 nm bandwidth, identical points per well as measured for MG-B-Tau). Cell-count normalized fluorescent intensity was determined by dividing the per-well MG-B-Tau intensity by Hoechst intensity and then plotted relative to untreated control using GraphPad PRISM ver. 7.0.

Uptake (% rel.) (HeLa cells; 5 μM, 2 h, relative to CPP9 (100%)): 17 ± 2% | IC50 [1]: 401 nM
SMILES: CC(=O)N[C@@H](CS)C(=O)N[C@@H](CCCNC(=N)N)C(=O)N[C@H](CCCNC(=N)N)C(=O)N[C@@H](CCCNC(=N)N)C(=O)N[C@@H](Cc1ccc2ccccc2c1)C(=O)N[C@@H](Cc1c[nH]c2ccccc12)C(=O)N[C@@H](CCC(N)=O)C(=O)N[C@H](C(=O)N[C@H](C(=O)N[C@@H](CCCNC(=N)N)C(=O)N[C@H](C(=O)O)C(C)(C)C)[C@@H](C)O)C(C)(C)S [Compound 22, Ac-Cys-Arg-(D-Arg)-Arg-(2-Nal)-Trp-Gln-Pen-Thr-Arg-Tle-OH] (Ac-CR[dR]R[2Nal]WQ[Pen]TR[Tle]-OH)

SMILES: CC(=O)N[C@H]1CSSC(C)(C)[C@@H](C(=O)N[C@H](C(=O)N[C@@H](CCCNC(=N)N)C(=O)N[C@H](C(=O)O)C(C)(C)C)[C@@H](C)O)NC(=O)[C@@H]2CCCCN2C(=O)[C@H](Cc2csc3ccccc23)NC(=O)[C@H](Cc2ccc3ccccc3c2)NC(=O)[C@H](CCCNC(=N)N)NC(=O)[C@H](CCCNC(=N)N)NC(=O)[C@@H](CCCNC(=N)N)NC1=O [Compound 32, Ac-Cys*-(D-Arg)-Arg-Arg-Nal-Bta-Pip-Pen*-Thr-Arg-Tle-OH] (Ac-C[dR]RR[2Nal][Bta][Pip][Pen]TR[Tle]-OH; disulfide 1-8)
cytosolic entry efficiency relative to CPP9 (HeLa cells; 5 μM, 2 h): 60% | absolute cytosolic entry efficiency (HeLa cells; from relative efficiency and CPP9 value): ~36% | presence of intact peptide in spheroids (HCT116 cell spheroids): not | cell viability (CFBE cells [2]): did not significantly reduce the viability | cell viability [3]: did not significantly reduce the viability | cell viability (H358 (lung cancer) cells): did not significantly reduce the viability | ion channel activity (short-circuit current) [4]: significantly increased the ion channel activity | improvement of ion channel activity (short-circuit current) (CFBE cells [5]; after 4 h): 33% | improvement of ion channel activity (short-circuit current) (CFBE cells [5]; after 24 h): 37% | LC3-II protein levels (LC3-II): increased the LC3-II protein levels to nearly WT level | concentrations at which increased expression was observed (ΔF508CFTR-FAP): 10 to 1000 nM | cell surface expression of ΔF508CFTR-FAP (ΔF508CFTR-FAP; 10 μM PGD97): reduced its surface expression | cell surface expression of ΔF508CFTR-FAP (ΔF508CFTR-FAP; PGD97 alone, 27° C., 24 h): slightly increased | cell surface expression of ΔF508CFTR-FAP (ΔF508CFTR-FAP; in combination with 10 μM VX809, 27° C.): further increase in cell surface expression

Reference: patent publication US12496350B2 (Ohio State Innovation Foundation, priority 2018, dated 2025)
